Measured values taken from patent US20160251342A1, “ALDEHYDE DERIVATIVE OF SUBSTITUTED OXAZOLIDINONES” (WANBURY LTD., priority 2012, published 2016).

Legend:
plasma protein = test: Plasma protein binding (dialysis), rat; format: in vitro ADME
Procedure: A compound solution (1 mM in DMSO) (5 μL), according to the invention is added to the respective plasma matrices of rat or human or mouse (1 ml).
Add 150 μl of phosphate buffer to receiving side of the dialysis well. […] Precipitate with Acetonitrile and dilute samples prior to analysis in 1.5 ml polypropylene tubes. Remove 50 μl from the sample side of dialysis well and add 50 μl of phosphate buffer+300 μl of acetonitrile containing IS. Remove 50 μl from the buffer side of the dialysis well and add 50 μl of respective matrix plasma+300 μl of ACN. Then vortexed and centrifuged for 5 min, and supernatant is taken and injected into LCMS.
Different test concentration ranging from 0.1 μM to 20 μM are made in methanol:water (90:10). Test solutions are added to the premixed matrix containing plasma:phosphate buffer (50:50). Precipitate with 300 μl of ice cold acetonitrile containing IS, vortexes and centrifuged. Supernatant is taken and injected into LCMS.
Percentage of plasma protein binding was obtained via Equation (2): % Fraction unbound=(concentration on the buffer side/concentration on the sample side)*100

[1] = Intravenous and oral pharmacokinetics in Wistar rats; format: in vivo; details: after i.v. administration, first measurement point
Procedure: On the day before administration of the substance, a catheter for obtaining blood is implanted in the jugular vein of the experimental animals (male Wistar rats, body weight 200-250 g) under Isofluran® anesthesia.
Blood samples (8-12 time points) are taken through the catheter sequentially over the course of 24 h after administration of the substance. The administration volume is 10 ml/kg for oral and 1 ml/kg for IV in male Wistar rats. Intravenous administration is via a formulation of 2% N—N Dimethyl acetamide/ethanol 10%/PEG400(30%)/water for IV injection (58%) and via Tween80/PEG400/sterile water in the case of oral administration. […]
Plasma is obtained by centrifuging the samples in heparinized tubes. […] After centrifugation, compound formula (B) and, where appropriate, known cleavage products of the compound formula (B) in the supernatant are determined quantitatively using a suitable LC/MS-MS method.
The measured plasma concentrations are used to calculate pharmacokinetic parameters of the test substance and of the active ingredient compound (A) liberated there from, such as AUC, Cmax, T½ (half-life) and CL (clearance). […]
The plasma concentration/time plots determined are used to calculate the pharmacokinetic parameters such as AUC, Cmax, MRT (mean residence time), t½ (half life) and CL (clearance) employing the validated pharmacokinetic calculation programs. […]

CYP isoforms = test: CYP inhibition studies, overall interpretation; format: in vitro ADME, humans; details: compound formula-B with other drug when administered
Procedure: The ability of substances to inhibit CYP1A2, CYP2C9, CYP2D6, CYP2C19, CYP2J2 and CYP3A4 in humans was investigated with pooled human liver microsomes as enzyme source in the presence of standard substrates (see below) which form CYP-isoform-specific metabolites.
Standard incubation mixtures comprise NADPH and substrates in 100 mM phosphate buffer (pH 7.4) in a total volume of 200 μl. Test compound are dissolved in acetonitrile. Incubated with pooled human liver microsomes at 37° C. for a defined time. The reactions are stopped by adding 100 μl of acetonitrile in which a suitable internal standard is always present. Precipitated proteins are removed by centrifugation, and the supernatants analyzed by LC-MS/MS. The data represents the extrapolated IC50 (μM) concentration derived from 3 μM.
This is an essential parameter to gauge drug-drug interactions.

[2] = Anticoagulant activity (PT, APTT) in human plasma; format: biochemical; details: 0.1 to 1.0 μg/mL, PT and APTT
Procedure: The anticoagulant action of the test substance (compound formula-B) and rivaroxaban was determined in vitro using human plasma. The human plasma used for this experiment was separated from the blood collected in sodium citrate as anticoagulant. The prothrombin time (PT) was determined by using a commercial test kit (Neoplastin from Stagid) and APTT was determined using (Synthasil kit by IL). […] Coagulation was then started by addition of thromboplastin, and time when coagulation occurred was determined. The concentration of test substance which effected a doubling of prothrombin time was determined.

Observation: amount of test product (plasma protein): Not quantificable amount of test
Observation: formed Rivaroxaban bound to plasma protein (plasma protein; phrase continues 'High bound' in next line): Rivaroxaban found to be moderate-
Detectability of unchanged test substance in plasma [1]: no longer detectable
Interpretation: drug-drug interaction (CYP isoforms): Low drug-drug interaction
Structure (SMILES): O=CN(C[C@H]1CN(c2ccc(N3CCOCC3=O)cc2)C(=O)O1)C(=O)c1ccc(Cl)s1 [compound formula (B), 5-chloro-N-formyl-N-({(5S)-2-oxo-3-[4-(3-oxomorpholin-4-yl)phenyl]-1,3-oxazolidin-5-yl}methyl)thiophene-2-carboxamide]
Anticoagulant activity [2]: significant anticoagulant activity
